Data on 32 molecules can be found in patent US10385022B2, “3-amino-pyridines as GPBAR1 agonists” (HOFFMANN-LA ROCHE INC., priority 2011, dated 2019).

The term EC50 denotes the concentration that produces a half-maximal response.

The assay deals with human GPBAR1 receptor (Homo sapiens (Human), UniProt Q8TDU6). Kind of assay: functional cAMP assay in CHO-dhfr(minus) cells expressing human GPBAR1 receptors. The class given is cell-based. To be noted: CHO-dhfr(minus) cells expressing human GPBAR1, 30 min at 30° C. Put shortly:
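CHO-dhfr- cells were transfected with human GPBAR1, and a clone was chosen by cAMP response to lithocholic acid. EC50 values come from the cAMP read-out; specificity was checked in non-transfected CHO cells.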
In general terms: cAMP levels reflect the balance of adenylyl cyclase and phosphodiesterase activity.

Chain of human GPBAR1 receptor (Q8TDU6 whole entry): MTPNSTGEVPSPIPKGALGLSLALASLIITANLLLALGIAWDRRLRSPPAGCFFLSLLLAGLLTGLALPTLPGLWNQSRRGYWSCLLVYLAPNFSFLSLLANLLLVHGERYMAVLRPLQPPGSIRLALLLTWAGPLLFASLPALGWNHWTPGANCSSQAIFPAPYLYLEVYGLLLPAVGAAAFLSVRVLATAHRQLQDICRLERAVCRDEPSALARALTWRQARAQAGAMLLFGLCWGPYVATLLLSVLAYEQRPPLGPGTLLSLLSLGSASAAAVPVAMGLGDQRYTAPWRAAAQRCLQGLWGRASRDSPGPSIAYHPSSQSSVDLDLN

Regarding `COc1ncccc1-c1ccncc1N(CC(N)=O)C(=O)c1cc(C(F)(F)F)nc(C(F)(F)F)c1` [Example 183, N-(2-Amino-2-oxoethyl)-N-(2-methoxy-3,4′-bipyridin-3′-yl)-2,6-bis(trifluoromethyl)-isonicotinamide], the concentration giving a half-maximal response (EC50) was 206 nM. The result for `Cc1ccccc1-c1ccncc1N(C)C(=O)c1cc([N+](=O)[O-])cc(C(F)(F)F)c1` [Example 184, N-Methyl-3-nitro-N-(4-o-tolylpyridin-3-yl)-5-(trifluoromethyl)benzamide] reads 15 nM. Take `Cc1ccccc1-c1ccncc1N(C)C(=O)c1cc(N2CCCC2=O)cc(C(F)(F)F)c1` [Example 185, N-Methyl-3-(2-oxo-pyrrolidin-1-yl)-N-(4-o-tolyl-pyridin-3-yl)-5-trifluoromethyl-benzamide]: the EC50 was determined as 2400 nM. In turn, `COc1cc(F)ccc1-c1ccncc1N(CC(N)=O)C(=O)c1cc(C(F)(F)F)cc(S(C)(=O)=O)c1` [Example 187, N-Carbamoylmethyl-N-[4-(4-fluoro-2-methoxy-phenyl)-pyridin-3-yl]-3-methanesulfonyl-5-trifluoromethyl-benzamide] showed a half-maximal effective concentration (EC50) of 478 nM. The result for `COC(=O)CN(C(=O)c1cc(C(F)(F)F)cc(C(F)(F)F)c1)c1cnccc1-c1cc(F)c(F)cc1OC` [Example 188, {(3,5-Bis-trifluoromethyl-benzoyl)-[4-(4,5-difluoro-2-methoxy-phenyl)-pyridin-3-yl]-amino}-acetic acid methyl ester] reads 70 nM; that for `COc1cc(F)c(F)cc1-c1ccncc1N(CC(N)=O)C(=O)c1cc(C(F)(F)F)cc(C(F)(F)F)c1` [Example 189, N-Carbamoylmethyl-N-[4-(4,5-difluoro-2-methoxy-phenyl)-pyridin-3-yl]-3,5-bis-trifluoromethyl-benzamide], 47 nM; that for `Cc1ccccc1-c1ccncc1N(C)C(=O)c1cc(C(F)(F)F)cc(C(F)(F)F)n1` [Example 190, 4,6-Bis-trifluoromethyl-pyridine-2-carboxylic acid methyl-(4-o-tolyl-pyridin-3-yl)-amide], 89 nM. `CS(=O)(=O)CCN(C(=O)c1cc(C(F)(F)F)cc(C(F)(F)F)c1)c1cnccc1-c1ccccc1F` [Example 191, N-[4-(2-Fluoro-phenyl)-pyridin-3-yl]-N-(2-methanesulfonyl-ethyl)-3,5-bis-trifluoromethyl-benzamide]: the half-maximal effective concentration (EC50) came out at 111 nM. As for `COc1cc(F)ccc1-c1ccncc1N(CCS(C)(=O)=O)C(=O)c1cc(C(F)(F)F)cc(C(F)(F)F)c1` [Example 192, N-[4-(4-Fluoro-2-methoxy-phenyl)-pyridin-3-yl]-N-(2-methanesulfonyl-ethyl)-3,5-bis-tri fluoro methyl-benzamide], the 50% effective concentration (EC50) worked out at 105 nM. Molecule `COc1cc(F)c(F)cc1-c1ccncc1N(CC(N)=O)C(=O)c1cc(C(F)(F)F)cc(S(C)(=O)=O)c1` [Example 193, N-(2-Amino-2-oxoethyl)-N-(4-(4,5-difluoro-2-methoxyphenyl)pyridin-3-yl)-3-(methylsulfonyl)-5-(trifluoromethyl)benzamide] gave a 50% effective concentration (EC50) of 456 nM. The result for `Cc1ccccc1-c1ccncc1N(C)C(=O)c1cc(C(F)(F)F)nc(S(C)(=O)=O)c1` [Example 194, 2-Methanesulfonyl-N-methyl-N-(4-o-tolyl-pyridin-3-yl)-6-trifluoromethyl-isonicotinamide] reads 258 nM. Molecule `COC(=O)CN(C(=O)c1cc(C(F)(F)F)nc(C(F)(F)F)c1)c1cnccc1-c1c(F)cccc1OC` [Example 195, Methyl 2-(N-(4-(2-fluoro-6-methoxyphenyl)pyridin-3-yl)-2,6-bis(trifluoromethyl)isonicotinamido)acetate] displayed an EC50 of 13 nM. Turning to `COC(=O)CN(C(=O)c1cc(C(F)(F)F)nc(C(F)(F)F)c1)c1cnccc1-c1ccccc1F` [Example 196, Methyl 2-(N-(4-(2-fluorophenyl)pyridin-3-yl)-2,6-bis(trifluoromethyl)isonicotinamido)acetate], the EC50 turned out to be 23 nM. As for `NC(=O)CN(C(=O)c1cc(C(F)(F)F)nc(C(F)(F)F)c1)c1cnccc1-c1ccccc1F` [Example 197, N-Carbamoylmethyl-N-[4-(2-fluoro-phenyl)-pyridin-3-yl]-2,6-bis-trifluoromethyl-isonicotinamide], the EC50 worked out at 105 nM. In turn, `COc1cc(C(=O)N(C)c2cnccc2-c2ccc(F)cc2OC)cc(Cl)n1` [Example 198, 2-Chloro-N-[4-(4-fluoro-2-methoxy-phenyl)-pyridin-3-yl]-6-methoxy-N-methyl-isonicotinamide] registered an EC50 of 92 nM.

In the case of `COc1cccc(F)c1-c1ccncc1N(CC(N)=O)C(=O)c1cc(C(F)(F)F)nc(C(F)(F)F)c1` [Example 199, N-Carbamoylmethyl-N-[4-(2-fluoro-6-methoxy-phenyl)-pyridin-3-yl]-2,6-bis-trifluoromethyl-isonicotinamide], the response was half-maximal at 33 nM (EC50).

The molecule `Cc1ccccc1-c1ccncc1N(C(=O)c1cc(C(F)(F)F)cc(C(F)(F)F)c1)C1COC1` [Example 200, N-Oxetan-3-yl-N-(4-o-tolyl-pyridin-3-yl)-3,5-bis-trifluoromethyl-benzamide] returned a half-maximal effective concentration (EC50) of 1200 nM. Regarding `COc1cc(F)ccc1-c1cc(Cl)ncc1N(C)C(=O)c1cc(C(F)(F)F)cc(S(C)(=O)=O)c1` [Example 201, N-[6-Chloro-4-(4-fluoro-2-methoxy-phenyl)-pyridin-3-yl]-3-methanesulfonyl-N-methyl-5-trifluoromethyl-benzamide], the concentration giving a half-maximal response (EC50) was 267 nM. Regarding `COc1cc(F)ccc1-c1cc(C)ncc1N(C)C(=O)c1cc(C(F)(F)F)cc(S(C)(=O)=O)c1` [Example 202, N-[4-(4-Fluoro-2-methoxy-phenyl)-6-methyl-pyridin-3-yl]-3-methanesulfonyl-N-methyl-5-trifluoromethyl-benzamide], the midpoint of the response, the EC50, lay at 157 nM. Take `CCC(=O)CN(C(=O)c1cc(C(F)(F)F)nc(C(F)(F)F)c1)c1cnccc1-c1ccc(F)cc1OC` [Example 203, N-[4-(4-Fluoro-2-methoxy-phenyl)-pyridin-3-yl]-N-(2-oxo-butyl)-2,6-bis-trifluoromethyl-isonicotinamide]: the EC50 worked out at 54 nM.

The molecule `CCC(=O)CN(C(=O)c1cc(C(F)(F)F)cc(S(C)(=O)=O)c1)c1cnccc1-c1ccc(F)cc1OC` [Example 204, N-[4-(4-Fluoro-2-methoxy-phenyl)-pyridin-3-yl]-3-methanesulfonyl-N-(2-oxo-butyl)-5-trifluoromethyl-benzamide] gave an EC50 of 619 nM. In turn, `COc1cccc(F)c1-c1ccncc1N(C)C(=O)c1cc(C(F)(F)F)cc(S(C)(=O)=O)c1` [Example 205, N-[4-(2-Fluoro-6-methoxy-phenyl)-pyridin-3-yl]-3-methanesulfonyl-N-methyl-5-trifluoromethyl-benzamide] displayed an EC50 of 17 nM. The result for `COc1cc(C(=O)N(C)c2cnccc2-c2ccc(F)cc2OC)cc(C(F)(F)F)n1` [Example 206, N-[4-(4-Fluoro-2-methoxy-phenyl)-pyridin-3-yl]-2-methoxy-N-methyl-6-trifluoromethyl-isonicotinamide] reads 23 nM; that for `COc1cc(F)ccc1-c1ccncc1N(CC1(C)COC1)C(=O)c1cc(C(F)(F)F)nc(C(F)(F)F)c1` [Example 207, N-[4-(4-Fluoro-2-methoxy-phenyl)-pyridin-3-yl]-N-(3-methyl-oxctan-3-ylmethyl)-2,6-bis-trifluoromethyl-isonicotinamide], 318 nM; that for `Cc1nn(C)c(C)c1-c1ccncc1N(C)C(=O)c1cc(C(F)(F)F)cc(C(F)(F)F)c1` [Example 208, N-Methyl-3,5-bis-trifluoromethyl-N-[4-(1,3,5-trimethyl-1H-pyrazol-4-yl)-pyridin-3-yl]-benzamide], 2960 nM. Regarding `Cc1nc(C)c(-c2ccncc2N(C)C(=O)c2cc(C(F)(F)F)cc(C(F)(F)F)c2)s1` [Example 209, N-[4-(2,4-Dimethyl-thiazol-5-yl)-pyridin-3-yl]-N-methyl-3,5-bis-trifluoromethyl-benzamide], the EC50 was determined as 1470 nM. In the case of `Cc1cn[nH]c1-c1ccncc1N(C)C(=O)c1cc(C(F)(F)F)cc(C(F)(F)F)c1` [Example 211, N-Methyl-N-[4-(4-methyl-2H-pyrazol-3-yl)-pyridin-3-yl]-3,5-bis-trifluoromethyl-benzamide] it was 959 nM; in that of `COc1cc(F)ccc1-c1ccnc(Cl)c1N(C)C(=O)c1cc(C(F)(F)F)cc(S(C)(=O)=O)c1` [Example 212, N-[2-Chloro-4-(4-fluoro-2-methoxy-phenyl)-pyridin-3-yl]-3-methanesulfonyl-N-methyl-5-trifluoromethyl-benzamide], 75 nM; in that of `COC(=O)CN(C(=O)c1cc(C(F)(F)F)cc(S(C)(=O)=O)c1)c1cnccc1-c1ccccc1F` [Example 213, [[4-(2-Fluoro-phenyl)-pyridin-3-yl]-(3-methanesulfonyl-5-trifluoromethyl-benzoyl)-amino]-acetic acid methyl ester], 253 nM. `CS(=O)(=O)c1cc(C(=O)N(CC(F)(F)F)c2cnccc2-c2ccccc2F)cc(C(F)(F)F)c1` [Example 214, N-[4-(2-Fluoro-phenyl)-pyridin-3-yl]-3-methanesulfonyl-N-(2,2,2-trifluoro-ethyl)-5-trifluoromethyl-benzamide] yielded an EC50 of 265 nM.

`CS(=O)(=O)c1cc(C(=O)N(CC(F)F)c2cnccc2-c2ccccc2F)cc(C(F)(F)F)c1` [Example 215, N-(2,2-Difluoro-ethyl)-N-[4-(2-fluoro-phenyl)-pyridin-3-yl]-3-methanesulfonyl-5-trifluoromethyl-benzamide] displayed an EC50 of 216 nM.

The molecule `COc1cc(F)ccc1-c1ccncc1N(C)C(=O)c1cc(SCCO)cc(C(F)(F)F)c1` [Example 216, N-[4-(4-Fluoro-2-methoxy-phenyl)-pyridin-3-yl]-3-(2-hydroxy-ethylsulfanyl)-N-methyl-5-trifluoromethyl-benzamide] gave an EC50 of 38 nM.
